Some test systems named below: COLO 205 colon; KM12 colon; HL-60(TB) leukemia; SNB-75 CNS; NCI-H522 lung; HT29 colon; SF-268 CNS; CAKI-1 renal; HOP-62 NSCLC; RPMI-8226 leukemia.
What all share (test): NCI-60 cell line screen, 48 h

SMILES strings stand for the structures.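 Results reflect a 48-hour exposure of cells in 96-well plates to compound at five concentrations. GI50: concentration for 50% inhibition of growth. TGI denotes the concentration required for complete inhibition of growth.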

Regarding `Nc1ncnc2c1ncn2CCCC(c1ccccc1)P(=O)(O)O` (stereo not given), the TGI in the experiment with COLO 205 colon, in the experiment with KM12 colon, in the experiment with HL-60(TB) leukemia, in the experiment with SNB-75 CNS, in the experiment with NCI-H522 lung and with HT29 colon was greater than 100 µM each time. In addition, the figures for the TGI in the experiment on SF-268 CNS and in the experiment with CAKI-1 renal were greater than 100 µM and 30.7 µM, respectively.
On to `CCOC(=O)CCC(NC(=O)c1ccc(Nc2nc3cc(C(F)(F)F)ccc3nc2C(=O)OCC)cc1)C(=O)OCC` (stereo not given), for which the TGI was greater than 100 µM with COLO 205 colon; greater than 100 µM in the experiment on HL-60(TB) leukemia; 27 µM in the experiment with HOP-62 NSCLC; greater than 100 µM in the experiment on RPMI-8226 leukemia; 42.2 µM in the experiment on NCI-H522 lung; 18.7 µM in the experiment with HT29 colon. In the experiment on SF-268 CNS, this compound showed a TGI of 28.6 µM.
`CC(=O)NNc1nc(C)c(C(/C=C/c2ccc([N+](=O)[O-])cc2)=N/NC(N)=O)s1`: the TGI with COLO 205 colon, with KM12 colon, with HOP-62 NSCLC, in the experiment with SNB-75 CNS, in the experiment on RPMI-8226 leukemia and in the experiment on NCI-H522 lung was greater than 100 µM in each case. The TGI in the experiment with HT29 colon, with SF-268 CNS and with CAKI-1 renal was greater than 100 µM each time.
For `NC(=O)COc1c(Br)cc(Br)cc1Br`, the TGI in the experiment on COLO 205 colon, in the experiment with KM12 colon, with HOP-62 NSCLC, in the experiment with SNB-75 CNS, with RPMI-8226 leukemia and in the experiment with NCI-H522 lung was greater than 100 µM each time. Also, the TGI in the experiment on HT29 colon, with SF-268 CNS and in the experiment on CAKI-1 renal was greater than 100 µM throughout.
As for `N/C(=N\NC(=O)c1nc2ccccc2s1)c1ccccn1`, the TGI was 27.6 µM with COLO 205 colon; greater than 100 µM in the experiment on KM12 colon; 23.4 µM in the experiment with HL-60(TB) leukemia; greater than 57.6 µM with HOP-62 NSCLC; greater than 45.1 µM in the experiment on SNB-75 CNS; 26.8 µM with RPMI-8226 leukemia. In addition, the TGI in the experiment on NCI-H522 lung is 44.6 µM; in the experiment on HT29 colon it was 50.7 µM; in the experiment on SF-268 CNS it was greater than 100 µM.
As to `CCCc1n[nH]c(=O)n1N1C(=O)C=CC1=O`, the TGI in the experiment on COLO 205 colon, in the experiment on HOP-62 NSCLC, in the experiment on NCI-H522 lung and in the experiment with CAKI-1 renal was greater than 100 µM each time.
As to `CC(=O)OC12CC(C(F)(F)F)(C(F)(F)F)OC1(OC(C)=O)CC(C(F)(F)F)(C(F)(F)F)O2` (stereo not given), the TGI in the experiment with COLO 205 colon was 25.6 µM; in the experiment on KM12 colon, 11.5 µM; in the experiment with HL-60(TB) leukemia, 11.3 µM; in the experiment with HOP-62 NSCLC, greater than 100 µM; with SNB-75 CNS, greater than 100 µM; in the experiment with RPMI-8226 leukemia, 7.61 µM. Further, the TGI with NCI-H522 lung was greater than 100 µM; in the experiment with HT29 colon it was greater than 100 µM; in the experiment on SF-268 CNS, 6.37 µM.
On to `COCCOC(C)C(=O)C(O)S(=O)(=O)O` (stereo not given), for which the TGI in the experiment with COLO 205 colon, in the experiment on KM12 colon, with HL-60(TB) leukemia, in the experiment on HOP-62 NSCLC, in the experiment with SNB-75 CNS and with RPMI-8226 leukemia was greater than 100 µM throughout. In addition, the TGI in the experiment with NCI-H522 lung, with HT29 colon and in the experiment on SF-268 CNS was greater than 100 µM throughout.
Regarding `Cn1c(=O)c2c(nc3n2CCC(=O)N3CCCCl)n(C)c1=O`, the TGI with COLO 205 colon, with KM12 colon, in the experiment on HL-60(TB) leukemia, with HOP-62 NSCLC, in the experiment on SNB-75 CNS and in the experiment with RPMI-8226 leukemia was greater than 100 µM throughout. For the same compound, the TGI in the experiment with HT29 colon and with SF-268 CNS was greater than 100 µM each time.
As for `N/C(=N\S(=O)(=O)c1ccc(-c2ccccn2)s1)Nc1ccc(Cl)cc1`, the TGI with COLO 205 colon turned out to be 35.9 µM; in the experiment with KM12 colon it was 70.4 µM; in the experiment on HOP-62 NSCLC it was 39.2 µM; in the experiment on SNB-75 CNS it was 45.7 µM; with RPMI-8226 leukemia, 84.5 µM; in the experiment with NCI-H522 lung, 24.4 µM. In addition, the TGI is 35.2 µM with HT29 colon, 36.6 µM in the experiment on SF-268 CNS and 24.9 µM in the experiment with CAKI-1 renal.
Take `O=C(O)CN1CCCC(Cc2c[nH]c3ccccc23)C1` (stereo not given): the TGI with COLO 205 colon, with KM12 colon, with HOP-62 NSCLC, in the experiment with SNB-75 CNS, in the experiment with SF-268 CNS and in the experiment with CAKI-1 renal was greater than 100 µM each time.
Regarding `C[C@@H](NC(=O)[C@@H]1C[C@]1(C)CO)c1cccc2ccccc12`, the TGI with COLO 205 colon, in the experiment with KM12 colon, in the experiment with HOP-62 NSCLC, with SNB-75 CNS, in the experiment with RPMI-8226 leukemia and with HT29 colon was greater than 100 µM each time. Moreover, the TGI with SF-268 CNS and with CAKI-1 renal was greater than 100 µM throughout.
As for `Cc1ccc2n(c1)cc(-c1ccc(/C=N/NC(=N)N/N=C/c3ccc(-c4cn5cc(C)ccc5[n+]4C)cc3)cc1)[n+]2C`, the TGI with COLO 205 colon is greater than 100 µM; with KM12 colon it was greater than 100 µM; in the experiment with HL-60(TB) leukemia, greater than 100 µM; with HOP-62 NSCLC it was greater than 100 µM; in the experiment with SNB-75 CNS, 35.2 µM; with RPMI-8226 leukemia, greater than 100 µM. The TGI was greater than 100 µM with NCI-H522 lung, greater than 100 µM with HT29 colon and 43.8 µM with SF-268 CNS.
On to `Fc1ccc2[nH]cc(-c3nc(-c4c[nH]c5ccncc45)cs3)c2c1`, for which the GI50 in the experiment on HL-60(TB) leukemia is 2.07 µM; in the experiment with SNB-75 CNS, 1.22 µM. The TGI with HL-60(TB) leukemia stood at 4.58 µM; in the experiment on SNB-75 CNS, 2.62 µM.
As for `COc1cc2c(c(O)c1C)C(=O)CC(c1ccccc1)O2` (stereo not given), the TGI in the experiment on KM12 colon was greater than 100 µM; in the experiment with HOP-62 NSCLC it was greater than 100 µM; in the experiment on SNB-75 CNS it was greater than 100 µM; in the experiment on NCI-H522 lung, greater than 100 µM; with HT29 colon, greater than 10 µM; in the experiment with SF-268 CNS, greater than 100 µM. In addition, the TGI in the experiment on CAKI-1 renal was greater than 100 µM.
Regarding `Clc1ccc2nc3n[nH]c(Cl)c3nc2c1`, the TGI in the experiment with COLO 205 colon, with KM12 colon, in the experiment with HOP-62 NSCLC, in the experiment with SNB-75 CNS, in the experiment on RPMI-8226 leukemia and in the experiment on HT29 colon was greater than 100 µM throughout. Besides, the TGI in the experiment with SF-268 CNS and in the experiment with CAKI-1 renal was greater than 100 µM each time.
For `Cc1nc2ccccc2c(=O)n1NC(=O)c1ccccc1[N+](=O)[O-]`, the TGI with KM12 colon, in the experiment on HL-60(TB) leukemia, in the experiment with HOP-62 NSCLC, in the experiment on SNB-75 CNS, in the experiment on RPMI-8226 leukemia and in the experiment with NCI-H522 lung was greater than 100 µM each time. In addition, the TGI in the experiment on HT29 colon and with SF-268 CNS was greater than 100 µM in each case.
Regarding `CC1(C)Oc2ccc3c(=O)cc(-c4cccs4)oc3c2C1C(=O)O` (stereo not given), the TGI in the experiment with COLO 205 colon, with HL-60(TB) leukemia, in the experiment with HOP-62 NSCLC, in the experiment on NCI-H522 lung, in the experiment with HT29 colon and with SF-268 CNS was greater than 100 µM each time. In the experiment with CAKI-1 renal, this compound displayed a TGI of 60.4 µM.
Take `Nc1nc(Nc2ccc(Cl)cc2)sc1C(=O)c1c[nH]c2ccccc12`: the TGI in the experiment with COLO 205 colon is 18 µM; in the experiment with KM12 colon, 51.1 µM; in the experiment on HL-60(TB) leukemia it was 82.8 µM; in the experiment on HOP-62 NSCLC, 46.9 µM; in the experiment with SNB-75 CNS, 24.3 µM; with RPMI-8226 leukemia, greater than 100 µM. In addition, the TGI in the experiment with HT29 colon was 20 µM; in the experiment on SF-268 CNS, 60 µM.
With `O=C(/C=C/c1ccc2c(c1)OCO2)NCCc1ccco1`, the TGI with COLO 205 colon is greater than 100 µM; in the experiment on KM12 colon, greater than 100 µM; in the experiment on HOP-62 NSCLC, greater than 100 µM; with SNB-75 CNS it was greater than 100 µM; in the experiment with RPMI-8226 leukemia, 99.1 µM; in the experiment on NCI-H522 lung it was 79.7 µM. Also, the TGI with HT29 colon, in the experiment with SF-268 CNS and in the experiment with CAKI-1 renal was greater than 100 µM each time.
With `COC(=O)[C@@H]1[C@H](O)CCC2=C(CC(=O)c3ccoc3)[C@H](C)CC[C@]21C`, the TGI in the experiment on COLO 205 colon, in the experiment on KM12 colon, in the experiment on HOP-62 NSCLC, in the experiment on SNB-75 CNS, in the experiment on HT29 colon and in the experiment on CAKI-1 renal was greater than 50 µM in each case.
Turning to `CCCCOc1c(C(=O)O)cc(Br)cc1C(=O)O`, the TGI in the experiment with COLO 205 colon, in the experiment on KM12 colon, in the experiment with HOP-62 NSCLC, in the experiment on SNB-75 CNS, in the experiment on RPMI-8226 leukemia and in the experiment with NCI-H522 lung was greater than 100 µM throughout. In addition, the TGI in the experiment with SF-268 CNS and in the experiment with CAKI-1 renal was greater than 100 µM each time.
As to `Cc1c(-c2coc(-c3ccccc3)n2)c(=O)n(-c2ccccc2)n1C`, the TGI with COLO 205 colon, with KM12 colon, in the experiment on HL-60(TB) leukemia, in the experiment with HOP-62 NSCLC, with SNB-75 CNS and in the experiment on RPMI-8226 leukemia was greater than 100 µM in each case. Further, the TGI in the experiment on NCI-H522 lung, in the experiment with HT29 colon and in the experiment on SF-268 CNS was greater than 100 µM in each case.
Take `N#CNC(=NCc1ccccc1)NCCc1c[nH]c2ccccc12`: the TGI with COLO 205 colon, with KM12 colon, in the experiment with HL-60(TB) leukemia, with HOP-62 NSCLC, in the experiment on SNB-75 CNS and in the experiment on RPMI-8226 leukemia was greater than 100 µM each time. For the same compound, the TGI in the experiment on HT29 colon and in the experiment on SF-268 CNS was greater than 100 µM in each case.
For the compound `O=C(/C=C/c1ccc(OCc2ccccc2)cc1)NCc1ccc(C(=O)NCc2ccccc2)cc1`, the TGI with COLO 205 colon, in the experiment on KM12 colon, in the experiment on HOP-62 NSCLC, in the experiment on SNB-75 CNS, in the experiment on RPMI-8226 leukemia and with NCI-H522 lung was greater than 100 µM each time. Moreover, the TGI with HT29 colon, in the experiment on SF-268 CNS and in the experiment with CAKI-1 renal was greater than 100 µM throughout.
